The values that follow come from patent publication US6541483B2, “Acridone-derived compounds useful as antineoplastic and antiretroviral agents” (The United States of America as represented by the …, priority 1996, dated 2003).

The test system of data set [1] is HIV-1. In words: XTT cytoprotection assay in HIV-1 infected peripheral blood lymphocytes. The format is cell-based. As to conditions: for cytoprotective activity: HIV-1 infected lymphocytes versus uninfected cells; for therapeutic index: lymphocyte cytoprotection assay. An excerpt: These compounds and several others were then examined in a cytoprotection assay involving peripheral blood lymphocytes which had been infected with HIV-1.
(§1) Briefly, the infected cells in culture are killed by the virus, and the cytotoxicity is detected by the formation of color due to the […] of a formazan dye (XTT) by enzymes released by the dying cells (Weislow et al., J. Natl. Cancer Inst. 81:577-586, 1989). An effective antiviral drug is able to protect the infected cells from cytotoxicity by inhibiting some vital function of the virus. […] FIGS. 4 and 5 show the cytoprotective activity of WMC26 and WMC42. Since many drugs can also be toxic to cells in their own right, a parallel experiment is carried out wherein uninfected cells are treated with the drugs until a concentration is reached where the cells are killed by the action of the drug.

The next data set concerns the target HIV-1 integrase (Human immunodeficiency virus type 1 group M subtype B, UniProt P04585). In words: in vitro integration and disintegration with full length purified integrase. As to conditions: full length purified HIV-1 integrase. It counts as biochemical. Details: utilized the full length purified HIV-1 integrase.
Data set [2] deals with prostate cancer cell line PRXF (PX2M/27), PC3M. The experiment in a line: clonogenic assay, prostate cancer line PC3M. It counts as cell-based, human. How it is done:
(§2) The activity of compound (4) was tested against several tumor xenografts in vitro. The experiments was carried out on cell lines derived from these tumors, utilizing a standard clonogenic assay protocol.

In data set [3] the test system is prostate cancer cell line PRXF (DU145X/2). The experiment in a line: clonogenic assay, prostate cancer line DU145X. It counts as cell-based, human. The method, then: as §2
The test system of another data set is melanoma MEXF (514/12). In words: clonogenic assay, melanoma line. The format is cell-based, human. How it is done:
as §2

Data set [4] deals with cell lines derived from tumor xenografts. The experiment in a line: clonogenic assay, mean over all tumor xenograft lines. It counts as cell-based, human. Conditions: all of the lines tested. The method, then: as §2
The test system of data set [5] is renal carcinoma RXF (1220/5). In words: clonogenic assay, renal carcinoma line. It counts as cell-based, human. The method, then:
as §2

Data set [6] relates to gastric carcinoma GFX (251/14). The experiment in a line: clonogenic assay, gastric carcinoma line. It counts as cell-based, human. How it is done: as §2
Data set [7] has as its system mammary tumor MACL (MCF7X/13). The experiment in a line: clonogenic assay, mammary tumor line. It counts as cell-based, human. How it is done:
as §2

The target of data set [8] is p7 nucleocapsid protein zinc fingers (Human immunodeficiency virus type 1 group M subtype B, UniProt P04591). In words: p7NC zinc finger fluorescence assays (TSQ, Trp37). It counts as biochemical, HIV-1. An excerpt:
(§3) Based on the findings thus far our efforts have focused on biological assays of the temacrazine congener.

Data set [9] relates to HIV-1. The experiment in a line: XTT cytoprotection assay in CEM-SS cells (antiviral EC50). The format is cell-based. Conditions: for XTT Assay EC50: Table 1; for cytoprotective activity: HIV-1-infected CEM SS leukemia cells.
Text: as §1
(§4) As a result of these preliminary data, additional experiments were carried out to establish the antiviral activity in other cell lines, using a variety of protocols. The preliminary experiments in lymphocytes were confirmed using infected macrophages. Much more extensive experiments were carried out in HIV-1-infected CEM SS leukemia cells. […] However, two derivatives were found which had low antileukemic activity while maintaining high antiviral activity. […] This gives a therapeutic index of more than 3 orders of magnitude. The corresponding therapeutic index for WMC50 is about 100-200, which is quite acceptable. Additional experiments were carried out on WMC-70. […] Further, WMC-70 appears to affect post-transcription events in the virus. […] While the inhibition of integration appears to be the principal mechanism by which this compound exerts its antiviral activity, there are perhaps other mechanisms which are also involved in the therapeutic action of this drug, and by extension, of other antiviral drugs of this class.
(§5) The antiviral properties of the WMC series of compounds were evaluated. First, all compounds were tested for their ability to inhibit HIV-1 replication in cell culture using the XTT cytoprotection assay. This assay measures the concentration-dependent capacity of compounds to protect CEM-SS cells from the cytopathic effects of HIV-1. […] Thus, temacrazine was the most efficacious compound in the XTT cytoprotection assay. This conclusion was also reached when the compounds were tested for anti-HIV-1 activity against HIV-1ADA in human monocyte/macrophage cultures (Table 1).

For data set [10], the target named is HIV-1 reverse transcriptase (Human immunodeficiency virus type 1 group M subtype B, UniProt P04585). The experiment in a line: reverse transcriptase enzyme activity. It counts as biochemical.
Text: as §3

The test system of a further data set is HIV-1ADA. In words: anti-HIV-1 activity in monocyte/macrophage cultures. The format is cell-based. As to conditions: Human immunodeficiency virus 1, read-out: Mo/Mφ EC50. How it is done:
as §5

In data set [11] the test system is attachment of HIV-1RF to CEM-SS cells. In words: attachment of virions to CEM-SS cells (cell-bound p24 ELISA). It counts as cell-based. Conditions: Human immunodeficiency virus 1, CEM-SS, read-out: Attachment ID50.
Text: as §3

Data set [12] deals with human monocyte/macrophage cultures. The experiment in a line: toxicity in monocyte/macrophage cultures. The format is cell-based. Conditions: Homo sapiens, read-out: Mo/Mφ IC50. The method, then:
as §5

In data set [13] the test system is HIV-1 LTR-directed chloramphenicol acetyltransferase (CAT) activity. In words: LTR-directed CAT activity in BF-24 cells. Conditions: 24 h, temacrazine up to 5 μM. The format is cell-based. The source says: Initiation and regulation of HIV-1 transcription requires a complex series of interactions with cellular transcription factors, such as NFkB, SP-1 and AP-1, and the participation of cellular factors in the transcriptional complex. In addition, the post-integrative model used here requires TNFα stimulated U1 and ACH-2 cells, this model requires not only the participation of the NFkB transcriptional complex, and also components of the TNFα signaling pathway. In order to rule out that temacrazine was non-specifically effecting transcription or down-regulating replication by interfering with the TNFα signal pathway, LTR-directed chloramphenicol acetyltransferase (CAT) activity was measured in BF-24 cells. BF-24 cells are derived from the THP-1 monocytic cell line and carry a stably integrated CAT gene under the transcriptional control of the HIV-1 LTR (S. Schwartz, et al., Proc. Natl. Acad. Sci. USA 86:7200 (1989); B. K. Felber, et al., Science 239:184 (1988)). The LTR in this monocytic cell line is inducible by IL-6, PMA and TNFα, and produces enzymatically active chloramphenicol transferase (“CAT”). […]
CAT activity was determined using a fluorescent Bodipy conjugated chloramphenicol after 18 h of reaction with 50 μg of protein extract containing Acetyl CoA.

The test system of a further data set is HIV-1RF. In words: nude mouse hollow fiber model of HIV-1 replication. It counts as in vivo, nude mice. Conditions: 40 mg/Kg q8h intraperitoneally. An excerpt: The novel mechanism of action of temacrazine and its broad range of activity against HIV-1 and its high therapeutic indexes led us to assess its in vivo and anti-viral properties in a nude mouse hollow fiber model of HIV-1 replication. Briefly, CEM-SS cells are infected with HIV-1RF and placed into hollow fibers and implanted intraperitoneal or subcutaneously into nude mice. […] Similarly, mice are being treated by oral and intravenous administration of temacrazine. Peritoneal washes and serum samples were collected and p24 expression determined by antigen capture. Intraperitoneal administration of temacrazine reduced the amount of detectable p24 in peritoneal washes by 5 to 10 fold independently of the dosage schedule. […] Thus, temacrazine reduces HIV-1 replication in vivo.

For another data set, the system named is CEM-SS cells. The experiment in a line: XTT assay toxicity in CEM-SS cells (IC50). It counts as cell-based. As to conditions: Homo sapiens, CEM-SS.
Text: as §1, §4, §5

Another data set concerns leukemia. As to conditions: Cholody et al. 1995; cited from earlier work.

Where two headings read alike, the source gives them in different places.

As to `CN(CCCNc1ccc2ncn3c4ccccc4c(=O)c1c23)CCCNc1ccc2nnn3c4ccccc4c(=O)c1c23` [WMC42], in the data set with HIV-1 [1], the cytoprotective activity result is on record as “able to protect the infected lymphocytes at concentrations far lower than those which resulted in drug induced killing” and the therapeutic index result was “very good therapeutic indices”. Further, on HIV-1 integrase, the “inhibition of integration and disintegration steps” value was “inhibited both the integration and disintegration steps”.
`O=c1c2ccccc2n2cnc3ccc(NCCCN4CCN(CCCNc5ccc6ncn7c8ccccc8c(=O)c5c67)CC4)c1c32` [Compound 4, 1,4-bis[3-[(6-oxo-6H-imidazo[4,5,1-de]-acridin-5-yl)amino]propyl]piperazine]: the IC70 entry in data set [2] (PC3M) is “less than 1 nanogram/mL”. Besides, the “sensitivity to the drug” value in data set [2] (PRXF PX2M/27) is given as “very sensitive”; in data set [3] it was “very sensitive”; in the data set with melanoma MEXF (514/12), “completely insensitive”; in data set [5], “completely insensitive”; in [6], “sensitive at the median dose”; in data set [7], “over twice the median dose”. Also, the “mean IC70 (concentration resulting in 70% killing of the tumor cells)” value in [4] is 2.3 µg/mL.
Turning to `O=S1(=O)C[C@H](O)[C@H](O)CS1` [NSC 624151], in [8], the “NCp7 TSQ (Increase in RFU/90 min)” value was 17 (NSC 624151) RFU/90 min and the “NCp7 Trp37 (Decrease in RFU/10 min)” value is 145 (NSC 624151) RFU/10 min.
For `CN(CCCNc1ccc2ncn3c4ccccc4c(=O)c1c23)CCCNc1ccc2ncn3c4ccccc4c(=O)c1c23` [Compound 682401], in the data set on HIV-1 [9] (CEM-SS cells), the “XTT Assay EC50” value is on record as “Inactive”. Also, the IC50 in [10] was over 100000 nM; in [11] it was over 100000 nM; in data set [12] it was 1000 nM. In the data set on HIV-1ADA, the EC50 is 50 nM.
As to `CC(C)OC(=O)c1cc(NC(=S)OC(C)C)ccc1Cl` [UC38, reference compound], in data set [10] (rCdG Template/primer, control compound, read-out: I50 RT Enzyme Activity), the IC50 is 6 nM.
As to `Cc1cn([C@H]2C[C@H](N=[N+]=[N-])[C@@H](CO)O2)c(=O)[nH]c1=O` [AZT, reference compound], the “CAT induction by TNFα” value in data set [13] is “inactive”.
For `Nc1ccn([C@H]2CC[C@@H](CO)O2)c(=O)n1` [ddC, reference compound], in the data set with HIV-1RF, the “Peritoneal Wash p24, mean” value is listed as 7 pg p24 and the “Serum p24, mean” value was found to be 87 pg p24.
As to `O=c1c2ccccc2n2cnc3ccc(NCCCN4CCN(CCCNc5ccc6nnn7c8ccccc8c(=O)c5c67)CC4)c1c32` [Compound 682404], in the data set with HIV-1 [9] (CEM SS cells), the therapeutic index is recorded as 100-200. The cytoprotective activity entry in the data set on HIV-1 [9] is listed as “cytoprotective at very low concentrations”. The EC50 worked out at 0.41 nM in the data set on HIV-1 [9] (Human immunodeficiency virus 1, CEM-SS, read-out: XTT Assay EC50); 0.41 nM in the data set with HIV-1 [9] (Human immunodeficiency virus 1, CEM-SS cells, read-out: EC50 antiviral value, XTT cytoprotection assay); 100 nM in the data set on HIV-1ADA. The IC50 in the data set with CEM-SS cells (read-out: IC50 toxicity value, XTT assay) was 158 nM; in the data set with CEM-SS cells (read-out: XTT Assay IC50), 158 nM; in data set [10], 35000 nM; in [11] it was over 100000 nM; in [12], 10000 nM.
`CN(CCCNc1ccc2nnn3c4ccccc4c(=O)c1c23)CCCNc1ccc2nnn3c4ccccc4c(=O)c1c23` [Compound 682403]: in the data set with HIV-1 [9] (CEM-SS cells), the “XTT Assay EC50” value is “Inactive”.
For the compound `Cc1cn([C@H]2C[C@H](N=[N+]=[N-])[C@@H](CO[P@](=O)(O)O[P@](=O)(O)OP(=O)(O)O)O2)c(=O)[nH]c1=O` [Compound A2TTP, reference compound], the IC50 in data set [10] (rAdT Template/primer, control compound, read-out: I50 RT Enzyme Activity) is 27 nM.
With `CN(CCCNc1ccc2ncn3c4ccccc4c(=O)c1c23)CCCNc1ccc2nnn3c4ccccc4c(=O)c1c23` [Compound 682402], the “XTT Assay EC50” value in the data set with HIV-1 [9] (CEM-SS cells) was “Inactive”. The IC50 in data set [10] is over 100000 nM; in data set [11], over 100000 nM; in [12] it was 10000 nM. The EC50 with HIV-1ADA stood at 160 nM.
As to `CN(CCCNc1ccc2ncn3c4ccccc4c(=O)c1c23)CCCNc1ccc2ncn3c4ccccc4c(=O)c1c23` [WMC26], the figures for the cytoprotective activity result with HIV-1 [1] and in the data set with HIV-1 [9] were “able to protect the infected lymphocytes at concentrations far lower than those which resulted in drug induced killing” and “could not be shown to be cytoprotective”, respectively. Moreover, the therapeutic index result in the data set on HIV-1 [1] was “very good therapeutic indices”. For the same compound, the “inhibition of integration and disintegration steps” value at HIV-1 integrase is “inhibited both the integration and disintegration steps”. For the same compound, in the data set with leukemia, the cytotoxicity to leukemia result is “very potently (nanomolar levels) cytotoxic”.
